{"source": "patent US20160015033A1", "about": "“COMPOUNDS DERIVED FROM HERBICIDAL CARBOXYLIC ACIDS AND TETRAALKYLAMMONIUM OR (ARYLALKYL)TRIALKYLAMMONIUM HYDROXIDES” (DOW AGROSCIENCES LLC, priority 2014, published 2016)", "key": {"Kochia Kochia scoparia": {"test_system": "Kochia Kochia scoparia", "assay": "Post-emergence greenhouse herbicide evaluation, Kochia", "type": "in vivo", "details": "560 g ae/ha, 14 days after application, visual injury 0 to 100% vs untreated control", "text": "(§1) A peat based potting soil, Metro-mix 360, was used as the soil media for this test. Metro-mix is a growing medium consisting of 35 to 45% specially processed Coconut Coir Pith, 10 to 20% horticultural grade vermiculite, 15 to 25% processed Ash Bark, 20 to 30% choice Canadian Sphagnum Peat Moss and proprietary nutrients and other ingredients. Several seeds of each species were to planted in 10 cm square pots and top watered twice daily. Plant material was propagated in the greenhouse at a constant temperature of 26 to 28° C. and 50 to 60% relative humidity. Natural light was supplemented with 1000-watt metal halide overhead lamps with an average illumination of 500 μE m^−2 s^−1 photosynthetic active radiation (PAR). Day length was 16 hours. Plant material was top-watered prior to treatment and sub-irrigated after treatment. […] The growth stage of the various weed species ranged from 2 to 4 leaf. Treatments were replicated 3 times. Plants were returned to the greenhouse after treatment and sub-watered throughout the duration of the to experiment. Plant material was fertilized twice weekly with Hoagland's fertilizer solution. Percent visual injury assessments were made on a scale of 0 to 100% as compared to the untreated control plants (where 0 is equal to no injury and 100 is equal to complete death of the plant)."}, "[1]": {"test_system": "grapes (Vitis labrusca L.)", "assay": "Volatility evaluation: injury to grapes from vapor exposure", "details": "wheat sprayed at 11200 g ae/ha, 24 hour vapor exposure at 40° C., evaluated 7 days after exposure", "source_text": "Four pots of wheat (Triticum aestivum L.) grown in 4 inch square pots were sprayed at 11200 g ae/ha with each of the different forms of 2,4-D. Treatments were applied with a tracksprayer manufactured by Allen Machine Works. The sprayer utilized an 8002E spray nozzle, spray pressure of 262 kPa pressure and speed of 1.5 mph (2.4 km/h) to deliver 187 L/Ha. The nozzle height was 46 cm above the plant canopy. The growth stage of the wheat was 1 to 2 leaf. The wheat plants were allowed to thoroughly dry to ensure that none of the spray solution was present when they were moved into a clean pot flat. A known sensitive species, grapes (Vitis labrusca L.) were placed at the opposite end of the flat. All of the pots were covered with a humidome with small ½ inch (1.27 cm) diameter holes cut into the end where the wheat was placed and a small box fan powered with a battery in the other end to pull air across the treated wheat plants and over the top of grapes. Plants were placed into a growth chamber with the temperature set at 40° C. with a 14 hour day and a 10 hour night cycle. A 24 hour exposure period was used after which the sensitive plants were then removed and placed in the greenhouse and evaluated for injury from vapor exposure to the treatments."}, "[2]": {"test_system": "Broadleaf Dock Rumex obtusifolia", "assay": "Post-emergence greenhouse herbicide evaluation, Broadleaf Dock", "type": "in vivo", "details": "560 g ae/ha, 14 days after application, visual injury 0 to 100% vs untreated control", "text": "as §1"}}}
{"compound": "CNC.O=C(O)COc1ccc(Cl)cc1Cl", "note": "[2,4-D dimethylamine (DMA), 2,4-D dimethylamine, reference compound]", "values": [{"measurement": "% Control Kochia Kochia scoparia", "setting": "Kochia Kochia scoparia", "result": 86, "unit": "%"}, {"measurement": "% Injury to grapes from vapor exposure", "setting": "[1]", "result": 78, "unit": "%"}, {"measurement": "% Control Broadleaf Dock Rumex obtusifolia", "setting": "[2]", "result": 77, "unit": "%"}]}
{"compound": "CCCCOCCOC(=O)COc1ccc(Cl)cc1Cl", "note": "[2,-4-D butoxyethylester (BEE), 2,-4-D butoxyethylester]", "values": [{"measurement": "% Injury to grapes from vapor exposure", "setting": "[1]", "result": 100, "unit": "%"}]}
{"compound": "C[N+](C)(C)C.O=C([O-])COc1ccc(Cl)cc1Cl", "note": "[Compound 1a]", "values": [{"measurement": "% Control Kochia Kochia scoparia", "setting": "Kochia Kochia scoparia", "result": 83, "unit": "%"}, {"measurement": "% Control Broadleaf Dock Rumex obtusifolia", "setting": "[2]", "result": 77, "unit": "%"}]}
{"compound": "CC[N+](CC)(CC)CC.O=C([O-])COc1ccc(Cl)cc1Cl", "note": "[Compound 1b]", "values": [{"measurement": "% Control Kochia Kochia scoparia", "setting": "Kochia Kochia scoparia", "result": 89, "unit": "%"}, {"measurement": "% Injury to grapes from vapor exposure", "setting": "[1]", "result": 0, "unit": "%"}, {"measurement": "% Control Broadleaf Dock Rumex obtusifolia", "setting": "[2]", "result": 79, "unit": "%"}]}
{"compound": "CCC[N+](CCC)(CCC)CCC.O=C([O-])COc1ccc(Cl)cc1Cl", "note": "[Compound 1c]", "values": [{"measurement": "% Control Kochia Kochia scoparia", "setting": "Kochia Kochia scoparia", "result": 83, "unit": "%"}, {"measurement": "% Control Broadleaf Dock Rumex obtusifolia", "setting": "[2]", "result": 73, "unit": "%"}]}
{"compound": "C[N+](C)(C)CCO.O=C([O-])COc1ccc(Cl)cc1Cl", "note": "[Compound 1e]", "values": [{"measurement": "% Control Kochia Kochia scoparia", "setting": "Kochia Kochia scoparia", "result": 86, "unit": "%"}, {"measurement": "% Control Broadleaf Dock Rumex obtusifolia", "setting": "[2]", "result": 68, "unit": "%"}]}
{"compound": "C[N+](C)(C)C.O=C([O-])COc1nc(Cl)c(Cl)cc1Cl", "note": "[Compound 2a]", "values": [{"measurement": "% Control Kochia Kochia scoparia", "setting": "Kochia Kochia scoparia", "result": 79, "unit": "%"}, {"measurement": "% Control Broadleaf Dock Rumex obtusifolia", "setting": "[2]", "result": 85, "unit": "%"}]}
{"compound": "CC[N+](CC)(CC)CC.O=C([O-])COc1nc(Cl)c(Cl)cc1Cl", "note": "[Compound 2b]", "values": [{"measurement": "% Control Kochia Kochia scoparia", "setting": "Kochia Kochia scoparia", "result": 88, "unit": "%"}, {"measurement": "% Injury to grapes from vapor exposure", "setting": "[1]", "result": 6, "unit": "%"}, {"measurement": "% Control Broadleaf Dock Rumex obtusifolia", "setting": "[2]", "result": 79, "unit": "%"}]}
{"compound": "CCC[N+](CCC)(CCC)CCC.O=C([O-])COc1nc(Cl)c(Cl)cc1Cl", "note": "[Compound 2c]", "values": [{"measurement": "% Control Kochia Kochia scoparia", "setting": "Kochia Kochia scoparia", "result": 95, "unit": "%"}, {"measurement": "% Control Broadleaf Dock Rumex obtusifolia", "setting": "[2]", "result": 79, "unit": "%"}]}
{"compound": "COc1c(Cl)ccc(Cl)c1C(=O)[O-].C[N+](C)(C)C", "note": "[Compound 4a]", "values": [{"measurement": "% Injury to grapes from vapor exposure", "setting": "[1]", "result": 12, "unit": "%"}]}
{"compound": "CCN(CC)CC.O=C(O)COc1nc(Cl)c(Cl)cc1Cl", "note": "[Triclopyr triethylamine (TEA), Triclopyr triethylamine, reference compound]", "values": [{"measurement": "% Control Kochia Kochia scoparia", "setting": "Kochia Kochia scoparia", "result": 91, "unit": "%"}, {"measurement": "% Injury to grapes from vapor exposure", "setting": "[1]", "result": 57, "unit": "%"}, {"measurement": "% Control Broadleaf Dock Rumex obtusifolia", "setting": "[2]", "result": 81, "unit": "%"}]}
{"compound": "Dicamba DMA", "values": [{"measurement": "% Injury to grapes from vapor exposure", "setting": "[1]", "result": 70, "unit": "%"}]}
